The subject of the test is INS-1E rat beta cells, no cytokines, CellTiter-Glo ATP, 48 h. Put plainly: ATP level change in INS-1E without cytokines, dose response, counter-screen for beta-cell apoptosis protection project, INS-1E rat cells, ATP luminescence, cherry pick (AID 463229). (In general: Counterscreens check selectivity or assay interference.)
As for `COc1ccc(Cn2c(SCc3cc(C)ccc3C)nc3cc(OC)c(OC)cc3c2=N)cc1`, the AC50 (in general, the concentration giving half of the maximal activity seen) was 7.22 µM.
With `COc1cc(NC(=O)c2[nH]cnc2C(N)=O)cc(C(=O)Nc2cccc(C(F)(F)F)c2)c1` the figure was 5.21 µM.
On to `CC(=O)Nc1sc2c(c1-c1nc3ccccc3s1)CN(C(C)C)CC2`, for which the AC50 is 3.79 µM.
As for `CCN(CC)S(=O)(=O)c1cc(NC(=O)CNc2cccc(S(=O)(=O)N3CCCC3)c2)ccc1C`, the AC50 was 7.43 µM.
Regarding `CCOC(=O)c1c(C)oc2c1C(=O)c1ccccc1C2=O`, the concentration at half-maximal activity (AC50) is 12.3 µM.
As for `CCn1c(C)c(C)c2cc(C(=O)N3CCc4ccccc4C3)ccc21`, the AC50 was 3.14 µM.
As to `CCOc1ccccc1NC(=O)C(=O)N/N=C/c1cc(Br)ccc1O`, the AC50 was 4.36 µM.
With `Cc1ccc(C)c(S(=O)(=O)Nc2ccc(O)c3ccccc23)c1` the figure was 14.1 µM; with `Cc1ccc(-c2nc(C(Cl)Cl)c3ccccc3n2)cc1`, 3.51 µM; with `CCCCSc1nc2sc3c(c2c(=O)n1-c1ccc(C)cc1)CCN(C)C3`, 22.4 µM.
Regarding `Cc1ccc(C(=O)c2c(C)oc3c2C(=O)C(=O)c2ccccc2-3)cc1`, the concentration at half-maximal activity (AC50) is 2.92 µM.
For the compound `COC(=O)C1=C(C)N(Cc2ccccc2)C(=NCc2cccc(C(F)(F)F)c2)N[C@H]1c1cccc(C(F)(F)F)c1`, the AC50 is 7.34 µM.
With `COc1cccc(/C=N/NC(=O)c2c(-c3ccccc3)noc2C)c1O`, the AC50 is 8.09 µM.
With `Nc1nc(-c2ccccn2)nc(N)c1Cc1ccc(Cl)cc1Cl` the figure was 11.9 µM; with `O=C(N=Nc1c(O)n(Cc2ccccc2)c2ccccc12)c1cc2ccccc2cc1O`, 8.07 µM.
With `CCn1c(=NC(=O)c2ccc(S(=O)(=O)N3CCOCC3)cc2)sc2cccc(OC)c21`, the AC50 was 8.4 µM.
For `O=S(=O)(c1cc(F)ccc1F)N1CCN(c2ncnc3ccccc23)CC1`, the AC50 was 5.01 µM.
As for `CCN(CC)c1ccc(/C=N/NC(=O)c2nnn(-c3nonc3N)c2C(C)C)c(O)c1`, the AC50 was 1.16 µM.
Regarding `CCOC(=O)c1c(NC(=O)/C=C/C(=O)O)sc(C)c1-c1ccc(C(C)(C)C)cc1`, the half-maximal activity concentration (AC50) is 7.17 µM.
On to `COc1ccc(C2/C=C\CN(C(=O)c3ccccc3)[C@H](Cc3ccccc3)C(=O)N2Cc2ccc(F)cc2)cc1` (some centres not stated), for which the AC50 is 7.75 µM.
Regarding `CCOC(=O)c1c(C)[nH]c(C)c1C(=O)CSc1nc2ccccc2c(=O)n1-c1ccc(CC)cc1`, the concentration at half-maximal activity (AC50) was 5.33 µM.
Take `Cc1ccc(Cl)cc1N1CCN(C(=O)CSc2nnc3n2C(C)(C)Cc2ccccc2-3)CC1`: the AC50 is 7.07 µM.
With `O=C(NCc1cccnc1)/C(=C/c1ccc(-c2cccc(Cl)c2)o1)S(=O)(=O)c1ccccc1`, the AC50 is 4.93 µM.
With `Cc1cc(C(=O)N/N=C/c2cc(Br)ccc2OC(=O)c2ccccc2)n[nH]1` the figure was 7.44 µM; with `C/C(=N\NC(=O)C(C)Oc1ccc([N+](=O)[O-])cc1)c1ccccn1` (configuration not stated), 4.2 µM.
With `CCc1nc(N2CCN(C(C)=O)CC2)c2c3c(sc2n1)CC(C(C)(C)C)CC3` (configuration not stated), the half-maximal activity concentration (AC50) was 2.79 µM.
In the case of `CCc1ccc(OCC(=O)NC(NC(=S)Nc2ccc(C)cc2C)C(Cl)(Cl)Cl)cc1` (configuration not stated), the half-maximal activity concentration (AC50) is 11.2 µM.
Regarding `CCc1ccc(C2CC(c3cccc(Cl)c3)n3nc(N)nc3N2)cc1` (configuration not stated), the AC50 was 14.7 µM.
Turning to `COC(=O)c1ccc(NC(=O)c2cccnc2)cc1`, the AC50 was 7.58 µM.
For the compound `COC1=C(Nc2ccccc2)C(=O)c2ccccc2C1=O`, the concentration at half-maximal activity (AC50) is 17.4 µM.
For the compound `O=C(NCc1cccnc1)/C(=C/c1ccc(-c2ccc(Cl)cc2)o1)S(=O)(=O)c1ccccc1`, the AC50 is 6.93 µM.
On to `CCCCCCCCCCCCCCCC[n+]1cccc(C(=O)N(CC)CC)c1`, for which the AC50 was 8.01 µM.
With `Cc1ccc(Nc2nc(NCc3ccco3)c3ccccc3n2)cc1`, the AC50 was 8.02 µM.
Under `Cc1ccc(NC(=O)c2ccc([N+](=O)[O-])o2)cc1S(=O)(=O)N1CCOCC1` stands 14.3 µM; under `Cn1c(/C=C/c2ccc([N+](=O)[O-])o2)nc2ccccc2c1=O`, 3.56 µM.
With `FC(F)(F)c1nnc2c(Sc3ccccc3)nc3ccc(Cl)cc3n12`, the AC50 was 11.1 µM.
For the compound `O=C(Nc1ccc([N+](=O)[O-])cc1)Nc1ccc(Cl)cc1F`, the AC50 is 6.71 µM.
As to `N#CC(C#N)=C(Nc1ccc(F)cc1)SCc1cccc(Br)c1`, the half-maximal activity concentration (AC50) was 3.02 µM.
Consider `CCN(CC)CCOc1ccc2c(c1)C(=NO)c1cc(OCCN(CC)CC)ccc1-2`, for which the AC50 is 14.1 µM.
With `CCCCCCCCn1c(=O)c(C(=O)OC)c(N)c2ccccc21` the figure was 4.89 µM.
With `NS(=O)(=O)c1ccc(N=Nc2ccc(O)c3ncccc23)cc1`, the concentration at half-maximal activity (AC50) is 8.05 µM.
On to `CCCCCCCNC1=CC(=O)CC(c2ccccc2)C1` (configuration not stated), for which the AC50 was 9.84 µM.
Take `Cc1cc(-c2ccccc2)n(-c2cc(N/N=C/c3ccccc3O)ncn2)n1`: the half-maximal activity concentration (AC50) was 7.17 µM.
Take `Cc1cc(C(C)(C)CC(C)(C)C)ccc1OCCOCC[N+](C)(C)Cc1ccccc1`: the AC50 was 4.07 µM.
Take `Cc1nnc2ccc(Oc3ccc(-c4ccccc4)cc3)nn12`: the AC50 was 8.92 µM.
As for `COC(=O)C1=C(c2ccc(OCc3ccccc3)cc2)C[C@@H]2CC[C@H]1N2C(=O)NC1CCN(Cc2ccccc2)CC1`, the AC50 is 7.55 µM.
As for `Cc1nc2ccccc2n1-c1nc(-c2ccco2)cc(C(F)(F)F)n1`, the half-maximal activity concentration (AC50) is 1.86 µM.
With `O=C1C=C(Nc2ccc(F)cc2)c2ccccc2C1=O`, the AC50 was 7.19 µM.
For the compound `COc1cccc(/C=N/Nc2nc3ccccc3[nH]2)c1O`, the AC50 was 8.89 µM.
For `Cn1nc(CC(=O)Nc2ccc3c(c2)OCCO3)c2ccccc2c1=O`, the concentration at half-maximal activity (AC50) is 5.63 µM.
As to `CCOc1ccc(S(=O)(=O)N(C(=O)c2ccco2)c2cc3sc(=O)oc3c3ccccc23)cc1`, the AC50 is 12.7 µM.
On to `O=C(Nc1ccc(Cl)cc1)/C(=C/c1cccc(O)c1)c1nc2ccccc2s1`, for which the AC50 is 4.46 µM.
With `O=C(NNC(=O)C12CC3CC(CC(C3)C1)C2)c1ccccn1`, the concentration at half-maximal activity (AC50) is 12.7 µM.
Under `CCOC(=O)C1CCN(C(=O)c2c(C)oc3c2C(=O)c2ccccc2C3=O)CC1` stands 17.4 µM; under `CS(=O)(=O)N(CC(=O)Nc1ccc(CC#N)cc1)c1ccc(C23CC4CC(CC(C4)C2)C3)cc1`, 7.41 µM.
As to `CN1/C(=C\C=N\NC(=O)c2ccc(O)cc2)C(C)(C)c2ccccc21`, the concentration at half-maximal activity (AC50) was 7.5 µM.
With `Cc1nc(C(=O)NNC(=O)c2c(-c3c(Cl)cccc3Cl)noc2C)cs1` the figure was 19.9 µM.
With `O=S(=O)(Nc1nc2ccccc2nc1Nc1ccc(N2CCOCC2)cc1)c1cc(Cl)ccc1Cl` the figure was 6.63 µM.
With `Cc1nnc(N/N=C/c2cc([N+](=O)[O-])c(N3CCC(C)CC3)cc2N2CCC(C)CC2)n1N` the figure was 2.54 µM; with `Cc1cc(N/N=C/c2ccccc2[N+](=O)[O-])nc(-n2nc(C)cc2C)n1`, 12.2 µM; with `O=C(N/N=C/c1cccc(F)c1)c1c(O)c2ccccc2[nH]c1=O`, 4.35 µM.
Consider `CC(C)CC[n+]1ccn(C2=C([O-])c3ccccc3C(=O)/C2=N\S(=O)(=O)c2ccccc2)c1`, for which the AC50 was 22.9 µM.
Consider `Cc1cc(C(=O)N/N=C/c2cc(N=Nc3ccccc3)ccc2O)n[nH]1`, for which the half-maximal activity concentration (AC50) is 3.23 µM.
Take `C/C(=N\NC(=O)c1cc2ccccc2cc1O)c1ccccn1`: the concentration at half-maximal activity (AC50) is 2.66 µM.
For `Cc1cccc(NC(=O)/C=C/c2ccc([N+](=O)[O-])s2)c1`, the concentration at half-maximal activity (AC50) was 8.56 µM.
With `C=CCn1c(SCN2C(=O)c3ccccc3C2=O)nc2ccc(Cl)cc2c1=O` the figure was 7.16 µM; with `CCO[C@H]1OC(C(=O)N2CCN(Cc3ccc4c(c3)OCO4)CC2)=C[C@@H](c2csc3ccccc23)[C@@H]1CCCO`, 6.01 µM.
